We go through five compounds from patent publication US20260001928A1 (CORTERIA PHARMACEUTICALS, priority 2022, published 2026).

*1 amine or outer side, *2 acyl side, *3 side chain or, on linkers, in order; H or OH if unused. Where a SMILES comes first, the peptide text is derived from it. Side-chain parts run from the residue outwards. [ ]: non-standard residue; d: D form. The star is where a group is joined. C18 diacid = O=C(O)CCCCCCCCCCCCCCCCC(=O)*; γGlu = O=C(O)[C@H](CCC(=O)[*:2])N[*:1]; C14 diacid = O=C(O)CCCCCCCCCCCCC(=O)*; NMeI = CC[C@H](C)[C@H](NC)C(=O)O; αMeL = CC(C)C[C@](C)(N)C(=O)O; Api = NC1(C(=O)O)CCNCC1; AEEA = NCCOCCOCC(=O)O; Aib = CC(C)(N)C(=O)O

One may read the EC50 as the concentration at which the effect is half-maximal. A low value points to greater potency.

The target in assay [1] is T1, CFR1R receptor (Homo sapiens, UniProt P34998).
T1 construct: host or cells: CHO-K1 (clone 2)
T1 sequence (P34998 24-415): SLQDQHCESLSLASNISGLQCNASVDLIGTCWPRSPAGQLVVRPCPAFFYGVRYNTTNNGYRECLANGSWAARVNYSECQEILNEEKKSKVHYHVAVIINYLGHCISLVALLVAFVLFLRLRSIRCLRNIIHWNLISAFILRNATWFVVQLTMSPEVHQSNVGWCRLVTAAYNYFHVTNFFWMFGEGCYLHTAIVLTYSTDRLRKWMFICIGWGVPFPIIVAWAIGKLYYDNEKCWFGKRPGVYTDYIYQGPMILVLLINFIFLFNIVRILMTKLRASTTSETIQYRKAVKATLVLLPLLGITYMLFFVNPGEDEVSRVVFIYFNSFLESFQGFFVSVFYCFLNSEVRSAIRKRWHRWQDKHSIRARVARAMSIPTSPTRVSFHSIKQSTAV
The assay is described as follows: Activity at anti-target CFR1R receptor, cAMP assay in CRF1R-overexpression CHO-K1 cells. It counts as cell-based. To be noted: 100% = Sauvagine at 100 nM; for EC50: cAMP. In a few lines: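 Clone 2 cells were cultured in F12 (Hams)/10% FBS/400 μg/ml G418 at 37° C./5% CO2, frozen in medium with 10% DMSO, and thawed vials used. The protocol followed the TeloHAEC procedure, with 4000 cells/well final and Sauvagine at 100 nM defining 100% activation.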
A general note: Cyclic AMP is a second messenger, typically raised through Gs and lowered through Gi signalling.

Assay [2] deals with T2, human CRF2a receptor (Homo sapiens, UniProt Q13324).
T2 construct: expressed in transfected cells; host or cells: TeloHEAC cells
T2 sequence (Q13324 1-411): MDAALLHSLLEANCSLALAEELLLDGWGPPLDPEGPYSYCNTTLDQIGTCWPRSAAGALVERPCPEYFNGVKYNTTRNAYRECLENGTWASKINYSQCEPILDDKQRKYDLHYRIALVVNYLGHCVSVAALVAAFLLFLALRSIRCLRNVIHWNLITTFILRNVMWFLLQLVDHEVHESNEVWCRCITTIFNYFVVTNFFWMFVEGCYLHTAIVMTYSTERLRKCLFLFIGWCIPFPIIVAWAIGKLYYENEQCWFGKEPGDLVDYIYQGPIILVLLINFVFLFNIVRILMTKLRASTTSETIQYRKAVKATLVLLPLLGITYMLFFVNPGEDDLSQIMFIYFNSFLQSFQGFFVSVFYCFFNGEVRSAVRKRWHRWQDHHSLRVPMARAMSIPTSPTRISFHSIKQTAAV
The assay can be described thus: Activity at human CRF2a receptor, cAMP functional assay in TeloHEAC cells. It counts as cell-based. To be noted: TeloHEAC cells stably expressing human CRF2a receptor, relative to urocortin 2 (100 nM = 100%). The method, boiled down:
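TeloHEAC cells stably expressing human CRF2a (10000 cells/well) were treated with 16-point 1:2 compound dilutions in HBSS/20 mM HEPES with IBMX for 30 min at 37° C. cAMP was read by HTRF (665/620 nm ratio). EC50 was the concentration giving 50% activation, with 100 nM urocortin 2 set as 100%.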

`CC[C@H](C)[C@H](NC)C(=O)N[C@H](C(=O)N[C@@H](CC(C)C)C(=O)N[C@@H](CO)C(=O)N[C@@H](CC(C)C)C(=O)N[C@@H](CC(=O)O)C(=O)N[C@@H](C(=O)N1CCC[C@H]1C(=O)N[C@H](C(=O)NCC(=O)N[C@@H](CC(C)C)C(=O)N[C@@H](CCCCNC(=O)CC[C@H](NC(=O)CCCCCCCCCCCCCCCCC(=O)O)C(=O)O)C(=O)N[C@@H](CCCCN)C(=O)N[C@H](C(=O)N[C@@H](CC(C)C)C(=O)N[C@@H](CC(C)C)C(=O)N[C@@H](CCC(=O)O)C(=O)N[C@@H](CCC(N)=O)C(=O)N[C@@H](CCC(=O)O)C(=O)N[C@@H](CCCCN)C(=O)N[C@@H](CCC(N)=O)C(=O)N[C@@H](CCCCN)C(=O)N[C@@H](CCCCN)C(=O)N[C@@H](CCC(N)=O)C(=O)N[C@@H](CCCNC(=N)N)C(=O)N[C@@H](CCC(=O)O)C(=O)N[C@@H](CCC(N)=O)C(=O)N[C@@H](C)C(=O)N[C@@H](CCC(=O)O)C(=O)N[C@H](C(=O)N[C@@H](CC(N)=O)C(=O)NC(C)(C)C(=O)N[C@@H](CCC(N)=O)C(=O)N[C@H](C(=O)N[C@@H](CC(C)C)C(=O)N[C@@H](C)C(=O)N[C@@H](CCC(N)=O)C(=O)N[C@H](C(N)=O)C(C)C)[C@@H](C)CC)[C@@H](C)O)[C@@H](C)CC)[C@@H](C)CC)C(C)C)C(C)C` [compound 192] (H-[NMeI]VLSLD[dV]PIGLK([γGlu-C18 diacid])KILLEQEKQKKQREQAETN[Aib]QILAQV-NH2): the “Emax (% I)” value in assay [1] is recorded as 19 % I. Besides, the concentration for a half-maximal effect (EC50) in assay [1] is above 250 nM; in assay [2], 0.11 nM.

As for `CC[C@H](C)[C@H](NC(C)=O)C(=O)N[C@H](C(=O)N[C@@H](CC(C)C)C(=O)N[C@@H](CO)C(=O)N[C@@H](CC(C)C)C(=O)N[C@@H](CC(=O)O)C(=O)N[C@@H](C(=O)N1CCC[C@H]1C(=O)N[C@H](C(=O)N[C@@H](CCCCN)C(=O)N[C@@H](CC(C)C)C(=O)N[C@@H](CCCCNC(=O)COCCOCCNC(=O)COCCOCCNC(=O)CC[C@H](NC(=O)CCCCCCCCCCCCCCCCC(=O)O)C(=O)O)C(=O)N[C@@H](CCCCN)C(=O)N[C@H](C(=O)N[C@@H](CC(C)C)C(=O)N[C@@H](CC(C)C)C(=O)N[C@@H](CCC(=O)O)C(=O)N[C@@H](CCC(N)=O)C(=O)N[C@@H](CCC(=O)O)C(=O)N[C@@H](CCCCN)C(=O)N[C@@H](CCC(N)=O)C(=O)N[C@@H](CCCCN)C(=O)NC(C)(C)C(=O)N[C@@H](CCC(N)=O)C(=O)N[C@@H](CCCNC(=N)N)C(=O)N[C@@H](CCC(=O)O)C(=O)N[C@@H](CCC(N)=O)C(=O)N[C@@H](C)C(=O)N[C@@H](CCC(=O)O)C(=O)N[C@H](C(=O)N[C@@H](CC(N)=O)C(=O)NC1(C(=O)N[C@@H](CCC(N)=O)C(=O)N[C@H](C(=O)N[C@@H](CC(C)C)C(=O)N[C@@H](C)C(=O)N[C@@H](CCC(N)=O)C(=O)N[C@H](C(N)=O)C(C)C)[C@@H](C)CC)CCNCC1)[C@@H](C)O)[C@@H](C)CC)[C@@H](C)CC)C(C)C)C(C)C` [compound 196] (Ac-IVLSLD[dV]PIKLK([AEEA-AEEA-γGlu-C18 diacid])KILLEQEKQK[Aib]QREQAETN[Api]QILAQV-NH2), in assay [1], the “Emax (% I)” value is 9 % I and the EC50 was above 250 nM. For the same compound, a half-maximal response in assay [2] (EC50) required 2.2 nM.

Turning to `CC[C@H](C)[C@H](NC(C)=O)C(=O)N[C@H](C(=O)N[C@@H](CC(C)C)C(=O)N[C@@H](CO)C(=O)N[C@@H](CC(C)C)C(=O)N[C@@H](CC(=O)O)C(=O)N[C@@H](C(=O)N1CCC[C@H]1C(=O)N[C@H](C(=O)N[C@@H](CCCCN)C(=O)N[C@@H](CC(C)C)C(=O)N[C@@H](CCCCNC(=O)COCCOCCNC(=O)COCCOCCNC(=O)CC[C@H](NC(=O)CCCCCCCCCCCCC(=O)O)C(=O)O)C(=O)N[C@@H](CCCCN)C(=O)N[C@H](C(=O)N[C@@H](CC(C)C)C(=O)N[C@@H](CC(C)C)C(=O)N[C@@H](CCC(=O)O)C(=O)N[C@@H](CCC(N)=O)C(=O)N[C@@H](CCC(=O)O)C(=O)N[C@@H](CCCCN)C(=O)N[C@@H](CCC(N)=O)C(=O)N[C@@H](CCCCN)C(=O)N[C@@H](CCCCN)C(=O)N[C@@H](CCC(N)=O)C(=O)N[C@@H](CCCNC(=N)N)C(=O)N[C@@H](CCC(=O)O)C(=O)N[C@@H](CCC(N)=O)C(=O)N[C@@H](C)C(=O)N[C@@H](CCC(=O)O)C(=O)N[C@H](C(=O)N[C@@H](CC(N)=O)C(=O)NC(C)(C)C(=O)N[C@@H](CCC(N)=O)C(=O)N[C@H](C(=O)N[C@@H](CC(C)C)C(=O)N[C@@H](C)C(=O)N[C@@H](CCC(N)=O)C(=O)N[C@H](C(N)=O)C(C)C)[C@@H](C)CC)[C@@H](C)O)[C@@H](C)CC)[C@@H](C)CC)C(C)C)C(C)C` [compound 171] (Ac-IVLSLD[dV]PIKLK([AEEA-AEEA-γGlu-C14 diacid])KILLEQEKQKKQREQAETN[Aib]QILAQV-NH2), in assay [1], the “Emax (% I)” value is 0 % I and the EC50 is above 250 nM. The EC50 in assay [2] amounted to 5.79 nM.

As to `CC[C@H](C)[C@H](NC)C(=O)N[C@H](C(=O)N[C@@H](CC(C)C)C(=O)N[C@@H](CO)C(=O)N[C@@H](CC(C)C)C(=O)N[C@@H](CC(=O)O)C(=O)N[C@@H](C(=O)N1CCC[C@H]1C(=O)N[C@H](C(=O)N[C@@H](CCCCN)C(=O)N[C@@H](CC(C)C)C(=O)N[C@@H](CCCCNC(=O)CC[C@H](NC(=O)CCCCCCCCCCCCCCCCC(=O)O)C(=O)O)C(=O)N[C@@H](CCCCN)C(=O)N[C@H](C(=O)N[C@@H](CC(C)C)C(=O)N[C@@H](CC(C)C)C(=O)N[C@@H](CCC(=O)O)C(=O)N[C@@H](CCC(N)=O)C(=O)N[C@@H](CCC(=O)O)C(=O)N[C@@H](CCCCN)C(=O)N[C@@H](CCC(N)=O)C(=O)N[C@@H](CCCCN)C(=O)N[C@@H](CCCCN)C(=O)N[C@@H](CCC(N)=O)C(=O)N[C@@H](CCCNC(=N)N)C(=O)N[C@@H](CCC(=O)O)C(=O)N[C@@H](CCC(N)=O)C(=O)N[C@@H](C)C(=O)N[C@@H](CCC(=O)O)C(=O)N[C@H](C(=O)N[C@@H](CC(N)=O)C(=O)N[C@@H](C)C(=O)N[C@@H](CCC(N)=O)C(=O)N[C@H](C(=O)N[C@@H](CC(C)C)C(=O)N[C@@H](C)C(=O)N[C@@H](CCC(N)=O)C(=O)N[C@H](C(N)=O)C(C)C)[C@@H](C)CC)[C@@H](C)O)[C@@H](C)CC)[C@@H](C)CC)C(C)C)C(C)C` [compound 138] (H-[NMeI]VLSLD[dV]PIKLK([γGlu-C18 diacid])KILLEQEKQKKQREQAETNAQILAQV-NH2), the “Emax (% I)” value in assay [1] turned out to be 10 % I. Further, the EC50 in assay [1] is above 250 nM; in assay [2] it was 0.05 nM.

Turning to `CC[C@H](C)[C@H](NC)C(=O)N[C@H](C(=O)N[C@@H](CC(C)C)C(=O)N[C@@H](CO)C(=O)N[C@@H](CC(C)C)C(=O)N[C@@H](CC(=O)O)C(=O)N[C@@H](C(=O)N1CCC[C@H]1C(=O)N[C@H](C(=O)N[C@@H](CCCCN)C(=O)N[C@@](C)(CC(C)C)C(=O)N[C@@H](CCCCNC(=O)COCCOCCNC(=O)COCCOCCNC(=O)CC[C@H](NC(=O)CCCCCCCCCCCCCCCCC(=O)O)C(=O)O)C(=O)N[C@@H](CCCCN)C(=O)N[C@H](C(=O)N[C@@H](CC(C)C)C(=O)N[C@@H](CC(C)C)C(=O)N[C@@H](CCC(=O)O)C(=O)N[C@@H](CCC(N)=O)C(=O)N[C@@H](CCC(=O)O)C(=O)N[C@@H](CCCCN)C(=O)N[C@@H](CCC(N)=O)C(=O)N[C@@H](CCCCN)C(=O)N[C@@H](CCCCN)C(=O)N[C@@H](CCC(N)=O)C(=O)N[C@@H](CCCNC(=N)N)C(=O)N[C@@H](CCC(=O)O)C(=O)N[C@@H](CCC(N)=O)C(=O)N[C@@H](C)C(=O)N[C@@H](CCC(=O)O)C(=O)N[C@H](C(=O)N[C@@H](CC(N)=O)C(=O)NC(C)(C)C(=O)N[C@@H](CCC(N)=O)C(=O)N[C@H](C(=O)N[C@@H](CC(C)C)C(=O)N[C@@H](C)C(=O)N[C@@H](CCC(N)=O)C(=O)N[C@H](C(N)=O)C(C)C)[C@@H](C)CC)[C@@H](C)O)[C@@H](C)CC)[C@@H](C)CC)C(C)C)C(C)C` [compound 119] (H-[NMeI]VLSLD[dV]PIK[αMeL]K([AEEA-AEEA-γGlu-C18 diacid])KILLEQEKQKKQREQAETN[Aib]QILAQV-NH2), in assay [1], the “Emax (% I)” value was determined as 5 % I and the EC50 is above 250 nM. Moreover, the EC50 in assay [2] worked out at 1.62 nM.
